Values joined by “and” are separate entries in the source; they are usually repeats but may differ in a detail not shown here. Identical values can stand only once.
Legend:
[1] = test system: 3′-CGGACAAGAAG-5′ (complementary DNA strand); experiment: Thermo-denaturation (UV-melting, 260 nm) of non-self-complementary DNA duplex; assay type: physicochemical; conditions: for average Tm (melting temperature) of the duplex: duplex 5′-C(2′-TeX-dU)TCTTGTCCG-3′ & 3′-CGGACAAGAAG-5′, four measurements, 50 mM NaCl, 10 mM phosphate pH 6.5, 0.1 mM EDTA, 10 mM MgCl2, 0.5° C./min
Description: (§1) Solution of the duplex DNA (2 uM) was prepared by dissolving the DNAs in a buffer containing 50 mM NaCl, 10 mM NaH2PO4—Na2HPO4 (pH 6.5), 0.1 mM EDTA and 10 mM MgCl2. The solution was heated to 70° C. for 2 min and cooled slowly to room temperature, followed by storing at 4° C. for overnight before measurement. The Tm curves were acquired at 260 nm by heating the samples from 5 to 70° C. at a rate of 0.5° C./min using Cary 300 UV-Visible Spectrophotometer with a temperature controller. […] The samples (1 mM duplex) were heated from 6 to 75° C. with a rate of 0.5° C./min. The red, blue and green curves represent the native, 2′-TeMe and 2′-TePh duplex, respectively, and are labelled in FIG. 6. The average Tm (four measurements) for each duplex is: 44.0±0.1° C. (native), 40.7±0.1° C. (2′-TeMe) and 36.8±0.2° C. (2′-TePh). […] The samples (1 mM duplex) were heated from 6 to 70° C. with a rate of 0.5° C./min. The circle (red), diamond (blue) and hexagon (purple) curves represent the native, 2′-TeMe and 2′-TePh DNA duplexes, respectively, with the averaged Tm (four times): 39.4° C. (native), 28.6° C. (2′-TeMe) and 23.4° C. (2′-TePh).

[2] = test system: self-complementary duplex [5′-G(2′-TeX-dU)GTACAC-3′]2; experiment: Thermo-denaturation (UV-melting, 260 nm) of self-complementary DNA duplex; assay type: physicochemical; conditions: for averaged Tm of the duplex: self-complementary 8-mer 5′-G(2′-TeX-dU)GTACAC-3′, two modifications per duplex, four times, 0.5° C./min; for Tm decrease per modification: self-complementary duplex [5′-G(2′-TeX-dU)GTACAC-3′]2, compared with native; for Tm decrease compared with the native duplex: self-complementary duplex [5′-G(2′-TeX-dU)GTACAC-3′]2, double Te-modification
Description: as §1

Row | Substance | average Tm (melting temperature) of the duplex [1] | difference in melting temperature between native and modified DNA ([1]; non-self-complementary duplex 5′-C(2′-TeX-dU)TCTTGTCCG-3′ and 5′-CGGACAAGA-AG-3′) [°C] | averaged Tm of the duplex [2] [°C] | Tm decrease per modification [2] [°C] | Tm decrease compared with the native duplex [2] [°C]
1 | 5′-C(2′-TeX-dU)TCTTGTCCG-3′&3′-CGGACAAGAAG-5′ [2′-TeMe duplex] | 40.7±0.1 °C and 40.7 °C | 3.3 | – | – | –
2 | 5′-C(2′-TeX-dU)TCTTGTCCG-3′&3′-CGGACAAGAAG-5′ [2′-TePh duplex] | 36.8±0.2 °C and 36.8 °C | – | – | – | –
3 | 5′-C(2′-TeX-dU)TCTTGTCCG-3′&3′-CGGACAAGAAG-5′ [native duplex, reference compound] | 44.0±0.1 °C and 44.0 °C | – | – | – | –
4 | [5′-G(2′-TeX-dU)GTACAC-3′, X=Ph or Me]2 [2′-TeMe DNA duplex] | – | – | 28.6 | 5.0 | 10
5 | [5′-G(2′-TeX-dU)GTACAC-3′, X=Ph or Me]2 [2′-TePh DNA duplex] | – | – | 23.4 | 7.5 | 15
